Data as given in patent US20250195431A1, “LIPID NANOPARTICLES FOR TARGETED DELIVERY OF MRNA” (Trustees of Tufts College, priority 2022, published 2025).

What was measured:
[1] = system: Firefly luciferase expression; assay: In vivo optimization of Lipid 88 formulations, intramuscular (I.M.) administration, bioluminescence; parameters: species or system mice; conditions: mouse
Description: Various formulations of mRNA/LNPs comprising lipid 88 were tested in vivo, including a plurality of ratios of ionizable lipids to helper lipids, and ratios of RNA to lipids. […] The luc mRNA/LNPs were then given to both adult and neonatal mice via various routes of administration (e.g., intravenously, intramuscularly, or through facial vein). After a period of time post injection (e.g., 6-80 hours), substrates of luciferase were administered to the animals and whole-body imaging was performed using IVIS imaging system.

IFN-γ-secreting T cells = assay: T cell response by ELISPOT after two doses of spike mRNA/LNP; parameters: species or system mice; conditions: mouse, in vivo
IgG anti-spike antibody = format: in vivo; conditions: mice, I.M., two doses
Exon 6 of Angltl 3 = assay: Base editing with mRNA encoding ABE8e and sgRNA_SA or sgRNA_SD using lipids (306O12B, L88 and L10); conditions: among 306O12B
Angptl3 = assay: ABE8e mRNA/sgRNA/LNPs injected to rodents: base editing and serum biomarkers; conditions: in vivo
Description: Significance measured with one way ANOVA. *P<0.05 **P<0.01 ***P<0.001 ****P<0.0001.
Blood taken on day 7. […] Significance measured with one way ANOVA *P<0.05 **P<0.01 ***P<0.001 ****P<0.0001.
Significance measured by one-way ANOVA.
Next LNPs (e.g., ABE8e mRNA/sgRNA/LNPs comprising lipid 88) were injected to rodents. In some cases, one dose of 3 mg/kg LNPs was administered. In some cases, 2 doses of 3 mg/kg LNPs were administered 48 hours apart. […] Significance measured with one way ANOVA. *P<0.05 **P<0.01 ***P<0.001 ****P<0.0001. Seven days post administration of the LNPs, blood samples were collected from treated animals, and various biomarkers were measured, including Angptl3, cholesterol, triglyceride, ALT, AST, and IL-6. […] Significance measured with one way ANOVA *P<0.05 **P<0.01 ***P<0.001 ****P<0.0001. […] Significance measured with one way ANOVA *P<0.05 **P<0.01 ***P<0.001 ****P<0.0001. […] Significance measured by one-way ANOVA. […] Significance measured by one-way ANOVA.

Compound | delivery of luc mRNA (bioluminescence over time) [1] | T cell response (ELISPOT), comparison of LNPs (IFN-γ-secreting T cells) | anti-spike IgG titer (ELISA), comparison of LNPs (IgG anti-spike antibody) | transfection and editing efficiency (Exon 6 of Angltl 3) [%] | percent of base editing, single dose vs double dose (Angptl3)
CCCCCCC(CCCC)COC(=O)OCCOC(=O)CCN(CCCN(C)CCCN(CCC(=O)OCCOC(=O)OCC(CCCC)CCCCCC)CCC(=O)OCCOC(=O)OCC(CCCC)CCCCCC)CCC(=O)OCCOC(=O)OCC(CCCC)CCCCCC (stereo not drawn) [Lipid 88] | enhanced delivery of luc mRNA to the mice compared with LNPs formulated with 113O12B | highest T cell response | highest anti-spike IgG titer | ~60 | maximal editing was reached with single dose
CCCCCCCCSSCCOC(=O)CCN(CCCN(C)CCCN(CCC(=O)OCC(CC)CCCC)CCC(=O)OCC(CC)CCCC)CCC(=O)OCC(CC)CCCC (stereo not drawn) [Lipid 65] | – | highest T cell response | – | – | –
